Measured values taken from patent US10736965B2, “Risperidone biodegradable implant” (The Trustees of the University of Pennsylvania, priority 2004, dated 2020).
≈ marks a conversion by molar mass, not a printed value. Read-outs that look alike come from different tables or passages of the source.

Tests used:
Drug solubility in water = type: physicochemical; conditions: measured after 14 days, distilled water, 21° C.; for solubility at 14 days: thermodynamic from solid
From the text: 1-mL aliquots were removed at fixed time intervals and analyzed by UV Spectroscopy to determine maximum saturation concentration.

[1] = In vitro drug release assay from 50:50 PLGA pellets, fit to equation (4); type: physicochemical; conditions: for k (degradation reaction rate): fit of FIG. 10 data to equation (4), 50:50 PLGA, 20% drug load; for Onset of drug release (induction time): 50:50 PLGA pellets, PBS 37° C.; for k, fit parameter: FIG. 11 legend
Experimental: 400 mg of 50:50 PLGA and 100 mg of drug were solvent cast to obtain a 20% by mass drug-load. Polymer and drug were dissolved in 45 milliliters (mL) acetone (Fisher Scientific, Inc.) and vortexed, then poured into an evaporation dish and placed in a vacuum oven at 40° C. under vacuum (3 inches Hg) with trace airflow. After seven days, dishes were removed from the oven. Evaporation residue was a thin film mixture of polymer and drug with homogenous appearance. The film was carefully weighed to confirm complete removal of solvent and pressed into four uniform disk-shaped pellets with 1 mm thickness and […], using a Teflon®-coated pellet press set at 25 (kilo-pounds) klb and 60° C. Pellets were carefully weighed and measured to determine densities. Negative control pellets with a 0% drug load were fabricated in the same manner, using 500 mg polymer and no drug.
Assays were performed in triplicate using three of each set of four uniform pellets. Each pellet was added to an amber-glass, capped jar (Wheaton, Inc.) containing 500 mL of a PBS solution and subjected to moderate shaking in the dark, at 37° C. 1-mL aliquots of were analyzed by UV Spectroscopy at fixed time intervals and. Positive control jars contained PBS and 10 mg of drug, the expected maximum release for a 20% drug-loaded pellet with a mass of 50 mg, and were also used to determine stability of each drug in saline solution over the course of the experiment.
The degradation reaction is likely to be a […] reaction between the polymer and water, and is thus proportional to the local concentration of both species. However, since the polymer comprises the majority of the pellet, its concentration is fixed everywhere. Thus, the degradation reaction is proportional to the local concentration of water (a function of the diffusivity) times a constant. Defining the diffusion coefficient of water into the polymer pellet as D, the diffusion/reaction equation for water is written as (1): […]
The model described by Equation (4) fit well the drug release data shown in FIG. 10 for all six drugs tested, with values of D and k as listed in Table 2 (the curves for haloperidol and aspirin are depicted in FIG. 11). This is notable because the drugs tested are diverse; e.g. haloperidol and aspirin are very different. The deviations seen at late time points arose from the finite size of the pellets.

in vivo = conditions: rabbit
From the text: The concentration of drug as a function of time is a complex function. The error function can be approximated as erf(x)˜1−e^−7x/4, yielding equation 10 for the drug concentration. a1 is a constant equal to the total drug content of the implant, variable a2 is a constant equal to the metabolic rate, variable a3 reflects diffusion of drug from the implant and variable a4 reflects polymer degradation and influences total release interval.

[2] = type: physicochemical
Experimental: To evaluate the long-term stability of risperidone in physiological solution, 10 mg Risperidone was dissolved in 100 μl of acetonitrile for subsequent dissolution in 1,000 ml of PBS (0.9% NaCl, 0.01 M NaOH, 0.01 M NaH2PO4, pH 7.0) to yield a final solution of 10,000 nanograms (ng)/ml. The solution was shaken at 40 revolutions per minute in a light-safe amber bottle at 37° C. Drug concentration of a 1-ml sample was measured three times per week by UV spectroscopy (Amersham Biosciences, Buckinghamshire, UK). […] Studies were replicated using UV spectrophotometry and HPLC (FIG. 5).

[3] = first 77 days

CC(=O)Oc1ccccc1C(=O)O [Aspirin, 2-acetyloxybenzoic acid]
Water solubility (Drug solubility in water): 4990 µg/mL
k (degradation reaction rate) [1]: 0.06 day⁻¹

CC12CCC(=O)C=C1CCC1C2C(O)CC2(C)C(C(=O)CO)CCC12 (stereo not drawn) [Corticosterone, 11-hydroxy-17-(2-hydroxyacetyl)-10,13-dimethyl-1,2,6,7,8,9,10,11,12,13,14,15,16,17-tetradecahydrocyclopenta[a]phenanthren-3-one]
solubility at 14 days (Drug solubility in water): 500 µg/mL (≈ 1440 µM)
k (degradation reaction rate) [1]: 0.33 day⁻¹

NS(=O)(=O)c1cc2c(cc1Cl)NCNS2(=O)=O [HCTZ, 9-chloro-5,5-dioxo-5λ6-thia-2,4-diazabicyclo[4.4.0]deca-6,8,10-triene-8-sulfonamide]
k (degradation reaction rate) [1]: 0.26 day⁻¹

O=C(CCCN1CCC(O)(c2ccc(Cl)cc2)CC1)c1ccc(F)cc1 [Haloperidol, 4-[4-(4-chlorophenyl)-4-hydroxy-1-piperidyl]-1-(4-fluorophenyl)-butan-1-one]
solubility at 14 days (Drug solubility in water): 130 µg/mL (≈ 346 µM)
Onset of drug release (induction time) [1]: exhibited an induction time
k, fit parameter [1]: approximately 0.1 1/days
k (degradation reaction rate) [1]: 0.07 day⁻¹
Coefficient τ (in vivo): ≈ 0.027
half-life (in vivo): ~2.17 h

CC(C)Cc1ccc(C(C)C(=O)O)cc1 (stereo not drawn) [Ibuprofen, 2-[4-(2-methylpropyl)phenyl]propanoic acid]
solubility at 14 days (Drug solubility in water): 470 µg/mL (≈ 2280 µM)
k, fit parameter [1]: approximately 0.164 1/days
k (degradation reaction rate) [1]: 0.16 day⁻¹

Cc1nc2n(c(=O)c1CCN1CCC(c3noc4cc(F)ccc34)CC1)CCCC2 [Risperidone]
Stability in physiological solution [2]: stable
Change in concentration of drug per day ([2]; PBS pH 7.0, 37° C.): 0.004 % per day
Change in concentration of drug ([2]; over 343 days, PBS pH 7.0, 37° C., UV spectroscopy): 1.4%
Daily change in drug mass ([3]; pH 4.4): 0.00%
Daily change in drug mass ([3]; pH 5.4): 0.10%
Daily change in drug mass ([3]; pH 6.4): 0.04%
Daily change in drug mass ([3]; pH 7.4): 0.06%

CN1CCN(CCC=C2c3ccccc3Sc3ccc(S(=O)(=O)N(C)C)cc32)CC1 [Thiothixene, N,N-dimethyl-9-[3-(4-methylpiperazin-1-yl)propylidene]thioxanthene-2-sulfonamid]
solubility at 14 days (Drug solubility in water): 140 µg/mL (≈ 316 µM)
Onset of drug release (induction time) [1]: released as soon as the experiment begins
k (degradation reaction rate) [1]: 0.06 day⁻¹
